From the NIST ThermoML archive (doi:10.1021/je9006234)
Numbers after ± are expanded uncertainties.

Settings: 298.15 K; 101.33 kPa; Liquid

Row | Structure (SMILES) | mass density [kg/m3]
1 | c1ccc2[nH]ccc2c1 [1H-indole] | 1216.68 ± 1.3
2 | CN(C)C=O [dimethylformamide] | 944.21 ± 0.23
3 | Nc1ccccc1 [aniline] | 1017.42 ± 0.19
4 | c1cc[nH]c1 [pyrrole] | 965.9 ± 2.9
5 | c1ccc2ncccc2c1 [quinoline] | 1089.45 ± 0.31
6 | c1ccncc1 [pyridine] | 978.25 ± 0.27
7 | CCCCCCCCCCCCCCCC [hexadecane] | 773.19 ± 0.32
